The values below are quoted from earlier work in patent US20130071871A1, “ENZYMATIC DETERMINATION OF LITHIUM IONS USING PHOSPHOGLUCOMUTASE” (SPECIALTY ASSAYS, INC., priority 2011, published 2013).

Bounds are passed on as bounds.

Take `[Li]` [Lithium]: the highly toxic level (level chosen for the elevated lithium standard, well above the therapeutic range) is ~3 mmol/L. Also, the “serum level too high, severe toxic side effects can occur” value (serum) was > 1200 µM.
